Laboratory results taken from patent publication US20250213614A1, “Modified RELA Protein for Inducing Interferon Expression and Engineered Immune Cells with Improved Interferon Expression” (Institut Curie, priority 2022, published 2025).

How the values were obtained:
MDDC = experiment: IFN-I/III quantification (LEGENDplex) in MDDC after STING stimulation; assay type: cell-based, human
Protocol: Plasmapheresis blood pockets were obtained from healthy adult volunteers after informed consent from the EFS (Establishment of French blood collection). Peripheral blood mononuclear cells (PBMCs) were isolated using Ficoll-Paque Plus (GE-17144003) and left overnight at 4° C. in RPMI (Thermo fischer #61870-010) with 10% heat-decomplemented fetal bovine serum (FBS, Eurobio #CVFSVFO0-01). CD14+ cells were enriched by positive selection (Miltenyi #130-050-201), the CD14 negative fraction was subsequently used to isolate total CD4+ T cells by negative selection (Stem Cell #17952). CD14+ cells were cultured in RPMI containing 10% FBS, 5% Penicillin-Streptomycin (PS, Thermo Fisher #10378-016), 50 μg/ml Gentamicin (Thermo Fisher #15750-045) and 10 mM HEPES (Thermo Fisher #15630-056). CD14+ cells were differentiated ex vivo into MDDC by supplementing the culture media with 50 ng/ml IL-4 (Miltenyi #130-093-922) and 10 ng/ml GM-CSF (Miltenyi #130-093-867). MDDC were used for experiments 3 or 4 days following the start of the culture. CD14+ cells were differentiated ex vivo into macrophages by adding 50 ng/ml MCSF (Miltenyi #130-096-492) to the culture media containing RPMI with 1% PS, 5% FBS and 5% human serum (Sigma #H4522). MDM were used 7 days following culture. Freshly isolated CD4+ T cells were cultured in X-VIVO 15 (Lonza #BE02-060F) and activated using anti-CD3 and anti-CD28 Dynabeads (fisher scientific #10548353) at the ratio of 1:5 (bead:cell). 100 U/ml human IL-2 (Immunotools #11340027) was added to cultures 2 days following TCR stimulation and media with IL-2 was replenished every 48 hours. To assess proliferation, freshly isolated CD4+ T cells were stained with cell proliferation dye (thermo fischer #65-0840-85) prior to TCR stimulation.
CD14+ cells were plated at 1 million cells/ml and transduced with equal volumes of freshly harvested SIV-VLPs and pTRIP-SFFV vectors in the presence of 8 μg/ml protamine (Sigma #P4020). CD4+ T cells were transduced with lentivectors 24 hours post-TCR stimulation in 100 μl of cells (0.2 million cells) and 100 μl of freshly harvested lentivirus in the presence of 8 μg/ml protamine. T cells were spinoculated at 1200 g for 2 hours at 25° C. 0.5 million THP-1 cells in 500 μl media (RPMI 10% FBS 1% PS) were transduced with 500 μl freshly harvested lentivirus in the presence of 8 μg/ml protamine. 1 μg/ml Puromycin (Invivogen #ant-pr-1) was added 2 days post-transduction when cells were transduced with pLKO.1-puro plasmid.
For stimulation of STING by extracellular ligands, 2.5 μg of ADUS100 (invivogen #tlrl-nacda2r-01) or 2′3′-cGAMP (cGAMP, invivogen #tlrl-nacga23-02) was added to 100,000 cells in 100 μl media either on freshly isolated primary cells or 3-4 days post differentiation for MDDC and 3 days post-TCR stimulation for CD4+ T cells. Cells and supernatant were harvested 18-24 hours post stimulation. For delivery of STING ligands after permeabilization, T cells were used 3 or 4 days post TCR stimulation and MDDC were used 3-4 days following differentiation. 150,000 cells were plated in round bottom 96-well plate. Media was removed by centrifugation and 20 μl 2× permeabilization buffer (100 mM HEPES, 200 mM KCl, 6 mM MgCl2, 0.2 mM DTT, 170 mM Sucrose, 2 mM ATP, 2 mM GTP, 0.4% bovine serum albumin (BSA), 20 μg/ml digitonin) and 20 μl cGAMP (12 μg/ml) was added to cells. 18 to 20 hours following stimulation supernatants and cells were harvested. Cells were stained with a fixable viability dye (Invitrogen #65-0865-14) and acquired on a FACSVerse (BD).
For experiments with conditioned media, CD4+ T cell- and MDDC-conditioned media refer to […] filtered conditioned media from cultures of activated CD4+ T cell and MDDC, respectively. CD4+ T cells were pretreated with 100 μl of MDDC-conditioned media or of fresh MDDC culture media, 24 hours prior to cGAMP stimulation. […]

cGAS = cGAS localization by confocal microscopy in CD4+ T cells; assay type: cell-based, human; conditions: activated CD4+ T cells overexpressing IRF3 or RELA K5R, FIG. 5D, 5E
Protocol: 4 to 5 days following transduction, 500,000 cells were plated on 0.1% poly-L lysine in water (Sigma #8920) coated coverslips and left for 30 minutes to attach. Cells were fixed in PBS 4% paraformaldehyde for 20 minutes at room temperature (RT). Coverslips were washed twice in PBS and quenched with 500 μl of freshly prepared PBS Glycine (375 mg Glycine in 50 mL of PBS) for 10 minutes at room temperature. […] Coverslips were incubated with primary antibody against cGAS (clone D1 D3G) or isotype control (clone DA1E) at a concentration of 0.085 μg/ml in PBS 0.2% BSA 0.05% saponin and left overnight at 4° C. in a moist chamber. Coverslips were washed 5 times with PBS 0.2% BSA 0.05% saponin and incubated in secondary antibody goat anti-Rabbit IgG at 1:400 (Invitrogen #A21246) for 45 minutes at RT. Coverslips were washed 5 times with PBS 0.2% BSA 0.05% saponin, rinsed in water and mounted on a glass slide using 10 μl fluoromount-G with DAPI (Invitrogen #00-4959-520). Glass slides were allowed to dry in a 37° C. chamber for 30 minutes and stored at 4° C. Images were acquired on a Leica Dml8 inverted microscope equipped with an SP8 confocal unit using a 40× (1.3 NA) oil objective. Image analysis was performed using Fiji software^77. […] Average cGAS and GFP intensities were measured in the whole cell, the nuclei and the cytosol (defined by the whole cell excluding the nuclear region).

| Molecule | increase in IFNλ1 at baseline (MDDC; MDDC, monocyte-derived macrophages (MDM) or THP-1 cells, data not shown) | IFN-I/III response to cGAMP compared to the control condition (MDDC; lentivector overexpression in MDDC, cGAMP 6 μg/ml, FIG. 2D) | cGAS localization (predominantly nuclear) (cGAS) | augmentation of cGAMP-mediated IFNλ1, IFNα2 and IFNβ production (MDDC; IRF3 over-expression in MDDC, cGAMP 6 μg/ml, FIG. 3B) [fold] |
| --- | --- | --- | --- | --- |
| RELA K5R: RELA mutant converting five lysine residues (K122, K123, K310, K314, K315) to arginine, expressed from lentivector | not observed | remained unchanged | remained unchanged |  |
| IRF3: interferon Regulatory Factor 3, over-expressed from lentivector (protein, UniProt Q14653 1-427, looked up) Interferon regulatory factor 3: MGTPKPRILPWLVSQLDLGQLEGVAWVNKSRTRFRIPWKHGLRQDAQQEDFGIFQAWAEATGAYVPGRDKPDLPTWKRNFRSALNRKEGLRLAEDRSKDPHDPHKIYEFVNSGVGDFSQPDTSPDTNGGGSTSDTQEDILDELLGNMVLAPLPDPGPPSLAVAPEPCPQPLRSPSLDNPTPFPNLGPSENPLKRLLVPGEEWEFEVTAFYRGRQVFQQTISCPEGLRLVGSEVGDRTLPGWPVTLPDPGMSLTDRGVMSYVRHVLSCLGGGLALWRAGQWLWAQRLGHCHTYWAVSEELLPNSGHGPDGEVPKDKEGGVFDLGPFIVDLITFTEGSGRSPRYALWFCVGESWPQDQPWTKRLVMVKVVPTCLRALVEMARVGGASSLENTVDLHISNSHPLSLTSDQYKAYLQDLVEGMDFQGPGES |  |  | remained unchanged | 10 |
